Legend:
[1] = Aqueous kinetic solubility assay; format: physicochemical; conditions: PBS buffer, pH 7.4, n = 3
Experimental: The aqueous kinetic solubility was determined from a 10 mM DMSO stock solution of test compound (39 or 50) in PBS buffer at pH 7.4. The study was performed by incubating an aliquot of 10 mM DMSO stock solution in PBS (pH 7.4) to a target concentration of 250 μM (2.5% DMSO). The incubation was carried out under shaking at 25 °C for 24 h, followed by centrifugation at 21,100g for 30 min. The supernatant was further diluted (4:1) with CH3CN, and the dissolved test compound was quantified by UV at 215 nm on a Waters ACQUITY UPLC-MS system consisting of a single quadrupole detector (SQD) mass spectrometer equipped with an electrospray ionization interface and a photodiode array detector (PDA) from Waters Inc. (Milford, MA, USA). Electrospray ionization in positive mode was used in the mass scan range 100–500 Da. The PDA range was 210–400 nm. The analyses were run on an ACQUITY UPLC BEH C18 column (50 × 2.1 mm ID, particle size 1.7 μm) with a VanGuard BEH C18 precolumn (5 × 2.1 mm ID, particle size 1.7 μm), using 10 mM NH4OAc in H2O at pH 5 adjusted with AcOH (A) and 10 mM NH4OAc in CN–H2O (95:5) at pH 5 (B) as the mobile phase.

[2] = Mouse pharmacokinetics, i.v. and p.o.; format: in vivo; conditions: plasma, male C57BL/6 mice; for AUC at 4 h / Cmax at 4 h / Tmax at 4 h / Vd at 4 h / clearance at 4 h / bioavailability at 4 h: iv; for AUC at 4 h / Cmax at 4 h / Tmax at 4 h / Vd at 4 h / clearance at 4 h: i.v. 3 mg/kg; for AUC at 8 h / Cmax at 8 h / Tmax at 8 h: po, p.o. 10 mg/kg
Experimental: Male C57BL/6 mice, weighing 22–24 g, were used (Charles River). All procedures were performed in accordance with the Ethical Guidelines of European Communities Council (Directive 2010/63/EU of 22 September 2010) and accepted by the Italian Ministry of Health. All efforts were made to minimize animal suffering and to use the minimal number of animals required to produce reliable results, according to the “3Rs concept”. Animals were group-housed in ventilated cages and had free access to food and water. They were maintained under a 12 h light/dark cycle (lights on at 8:00 am) at controlled temperature (21 ± 1 °C) and relative humidity (55 ± 10%).
Compound 39 or 50 was administered p.o. and i.v. to C57BL/6 male mice at 10 and 3 mg/kg. The vehicle used was PEG400/Tween 80/saline solution at 10/10/80% in volume, respectively. Three animals per each time point were treated. Blood samples at 0, 15, 30, 60, 120, 240, and 480 min after administration were collected for the p.o. arm. Blood samples at 0, 5, 15, 30, 60, 120, and 240 min after administration were collected for the i.v. arm. Plasma was separated from blood by centrifugation for 15 min at 1500 rpm a 4 °C, transferred to Eppendorf tubes, and frozen (−80 °C). Control animals treated with vehicle only were also included in the experimental protocol.
Plasma samples were centrifuged at 21,100g for 15 min at 4 °C. An aliquot of each sample was extracted (1:3) with cold CH3CN containing 200 nM of an appropriate internal standard as a close analogue of the parent compound (for compound 39: (1R,3r,5S)-3-(4-phenylphenoxy)-8-((3,5-dimethyl-1H-pyrazol-4-yl)sulfonyl)-8 azabicyclo[3.2.1]octane; for compound 50: (1R,3r,5S)-3-((5-methylpyrazin-2-yl)oxy)-8-((3,5-dimethyl-1H-pyrazol-4-yl)sulfonyl)-8-azabicyclo[3.2.1]octane). A calibration curve was obtained in blank mouse plasma over a 1 nM to 10 μM range. Three quality controls were prepared by spiking the parent compound in blank mouse plasma to 20, 200, and 2.000 nM, as final concentrations. The calibrators and quality controls were extracted (1:3) with the same extraction solution as the plasma sample. The plasma samples, the calibrators, and quality controls were centrifuged at 3.270g for 15 min at 4 °C. The supernatants were further diluted (1:1) with H2O + 0.1% HCOOH, and analyzed by LC–MS/MS on a Waters ACQUITY UPLC-MS TQD system consisting of a Triple Quadrupole Detector (TQD) Mass Spectrometer equipped with an Electrospray Ionization interface and a Photodiode Array eλ Detector from Waters Inc. (Milford, MA, USA). Electrospray ionization was applied in positive mode. Compound-dependent parameters such as MRM transitions and collision energy were developed for the parent compound and the internal standard. The analyses were run on an ACQUITY UPLC BEH C18 (50 × 2.1 mm ID, particle size 1.7 μm) with a VanGuard BEH C18 precolumn (5 × 2.1 mm ID, particle size 1.7 μm) at 40 °C. The mobile phase was H2O + 0.1% HCOOH (A) and CH3CN + 0.1% HCOOH (B) at a flow rate = 0.5 mL/min. A linear gradient was applied starting at 10% B with an initial hold for 0.2 min, then 10–100% B in 2 min. All samples (plasma samples, calibrators, and quality controls) were quantified by the MRM peak area response factor in order to determine the levels of the parent compound in plasma. The concentrations versus time were plotted and the profiles were fitted using PK Solutions Excel Application (Summit Research Service, USA) in order to determine the pharmacokinetic parameters.

[3] = p.o. 10 mg/kg vs i.v. 3 mg/kg, read-out: F (oral bioavailability)

Structure (SMILES) | solubility kinetic at 24 h [1] | AUC at 4 h [2] | Cmax at 4 h [2] | Tmax at 4 h [2] | Vd at 4 h [2] | clearance at 4 h [2] | bioavailability at 4 h [2, 3] | bioavailability ([2]; oral, p.o. 10 mg/kg vs i.v. 3 mg/kg, read-out: F (oral bioavailability)) | AUC at 8 h [2] | Cmax at 8 h [2] | Tmax at 8 h [2]
CCOCc1cnc(O[C@H]2C[C@H]3CC[C@@H](C2)N3S(=O)(=O)c2c(C)n[nH]c2C)cn1 [Compound 50, (1R,3r,5S)-8-((3,5-Dimethyl-1H-pyrazol-4-yl)sulfonyl)-3-((5-(ethoxymethyl)pyrazin-2-yl)oxy)-8-azabicyclo[3.2.1]octane] | > 250 µM | 3370 ng·h/mL | 5240 ng/mL | 5 min | 0.53 L/kg | 13 mL/min/kg | 60% | ~60% | 6790 ng·h/mL | 6870 ng/mL | 15 min
CCCCc1ccc(O[C@H]2C[C@H]3CC[C@@H](C2)N3S(=O)(=O)c2c(C)n[nH]c2C)cc1 [Compound 39, (1R,3r,5S)-3-(4-Butylphenoxy)-8-((3,5-dimethyl-1H-pyrazol-4-yl)sulfonyl)-8-azabicyclo[3.2.1]octane] | < 1 µM | 347 ng·h/mL | 702 ng/mL | 5 min | 4.45 L/kg | 144 mL/min/kg | 30% |  | 346 ng·h/mL | 297 ng/mL | 30 min
